Consider 29 compounds from US9938222B2 (BRISTOL-MYERS SQUIBB COMPANY, priority 2014, dated 2018).

Each structure is given as a SMILES string.

human GPR120, sequence (Q5NUL3 whole entry): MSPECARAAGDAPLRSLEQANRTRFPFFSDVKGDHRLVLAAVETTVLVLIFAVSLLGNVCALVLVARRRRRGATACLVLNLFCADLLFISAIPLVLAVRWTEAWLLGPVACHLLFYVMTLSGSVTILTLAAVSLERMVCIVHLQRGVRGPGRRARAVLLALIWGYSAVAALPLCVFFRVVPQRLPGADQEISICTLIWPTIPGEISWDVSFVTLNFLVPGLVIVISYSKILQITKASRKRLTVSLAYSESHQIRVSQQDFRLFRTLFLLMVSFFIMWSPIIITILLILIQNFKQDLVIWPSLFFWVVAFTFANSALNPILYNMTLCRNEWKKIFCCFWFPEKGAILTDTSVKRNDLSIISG

The first test has as its target human GPR120 (Homo sapiens (Human), UniProt Q5NUL3). Kind of test: GPR120 pERK AlphaScreen SureFire Assay (human GPR120 pERK assay). The test is classed as cell-based. The note with it: CHO cells stably transfected with short form of human GPR120. The method in brief: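 CHOA12 cells stably expressing short-form human GPR120, serum-starved 2 h, then stimulated 7 min at 37° C with compound (33.33 μM to 0.56 nM, 11-point). Phospho-ERK1/2 read by AlphaScreen SureFire in lysates. Activation scaled between DMSO and 50 μM linolenic acid; EC50 from a 4-parameter logistic fit.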
Compound `CC(C)Oc1ccc(F)c(-c2ccc(C[C@H]3C[C@H]3CC(=O)O)cc2)c1` (racemic) [Example 34, Cis-2-(2-((2′-fluoro-5′-isopropoxy-[1,1′-biphenyl]-4-yl)methyl)cyclopropyl)acetic acid] displayed an EC50 of 430 nM.
Same read-out and setting: the figure for `CC(C)Oc1ccc(F)c(-c2ccc(CC[C@H]3C[C@H]3C(=O)O)cc2)c1` (single isomer, unassigned) [Example 16] is 420 nM; for `CC(C)Oc1ccc(F)c(-c2ccc(CC[C@@H]3C[C@@H]3C(=O)O)cc2)c1` (single isomer, unassigned) [Example 17] it is 200 nM; for `Cc1ccc(Oc2ccc(F)c(-c3ccc(OC[C@@H]4C[C@H]4C(=O)O)cc3)c2)cn1` (racemic) [Example 114, Trans-2-(((2′-fluoro-5′-((6-methylpyridin-3-yl)oxy)-[1,1′-biphenyl]-4-yl)oxy)methyl) cyclopropanecarboxylic acid] it is 140 nM.
Take `O=C(O)[C@@H]1C[C@H]1COc1ccc(-c2cc(Oc3ccccc3)ccc2F)cc1F` (single isomer, unassigned) [Example 10]: the concentration giving a half-maximal response (EC50) amounted to 80 nM.
On the same count and under the same terms, the figure for `O=C(O)[C@@H]1C[C@H]1COc1ccc(-c2cc(Oc3cccc(F)c3)ccc2F)cc1` (racemic) [Example 42, Trans-2-(((2′-fluoro-5′-(3-fluorophenoxy)-[1,1′-biphenyl]-4-yl)oxy)methyl)cyclopropanecarboxylic acid] is 180 nM.
Compound `CC(C)Oc1cccc(-c2ccc(CC[C@@H]3C[C@H]3C(=O)O)cc2)c1` (racemic) [Example 131, Trans-2-(2-(3′-isopropoxy-[1,1′-biphenyl]-4-yl)ethyl) cyclopropanecarboxylic acid] had an EC50 of 920 nM.
The same measure, in the same setting: to `CC(C)Oc1cc(-c2ccc(OC[C@@H]3C[C@H]3C(=O)O)cc2)cc(C(F)(F)F)c1` (racemic) [Example 47, Trans-2-(((3′-isopropoxy-5′-(trifluoromethyl)-[1,1′-biphenyl]-4-yl)oxy)methyl)cyclopropanecarboxylic acid] belongs 2040 nM.
The same measure, in the same setting: to `CC(C)Oc1cccc(-c2ccc(OC[C@@H]3C[C@H]3C(=O)O)cc2)c1` (racemic) [Example 73, Trans-2-(((3′-isopropoxy-[1,1′-biphenyl]-4-yl)oxy)methyl) cyclopropanecarboxylic acid] belongs 1380 nM; to `O=C(O)[C@@H]1C[C@H]1COc1ccc(-c2cc(C(F)(F)F)cnc2Cl)cc1` (racemic) [Example 122, Trans-2-((4-(2-chloro-5-(trifluoromethyl)pyridin-3-yl)phenoxy)methyl)cyclopropanecarboxylic acid], 1350 nM; to `CC(C)Oc1ccc(F)c(-c2ccc(OC[C@@H]3C[C@H]3C(=O)O)cc2)c1F` (relative stereo) [Example 127, Trans-2-(((2′,6′-difluoro-3′-isopropoxy-[1,1′-biphenyl]-4-yl)oxy)methyl) cyclopropanecarboxylic acid], 940 nM.
Still for that read-out and setting: to `CC(C)Oc1ccc(F)c(-c2ccc(CO[C@@H]3C[C@H]3C(=O)O)cc2)c1` (relative stereo) [Example 37, Trans-2-((2′-fluoro-5′-isopropoxy-[1,1′-biphenyl]-4-yl)methoxy)cyclopropanecarboxylic acid] belongs 2650 nM; to `O=C(O)C1CC1COc1ccc(-c2cc(OC3CCCC3)ccc2F)cc1` (racemic) [Example 50, Trans-2-(((5′-cyclopentyloxy)-2′-fluoro-[1,1′-biphenyl]-4-yl)oxy)methyl) cyclopropanecarboxylic acid], 260 nM.
The compound `CC[C@@H](C)Oc1ccc(F)c(-c2ccc(OCC3CC3C(=O)O)cc2)c1` (stereo partly drawn) [Example 93, Trans-2-(((5′-((R)-sec-butoxy)-2′-fluoro-[1,1′-biphenyl]-4-yl)oxy)methyl) cyclopropanecarboxylic acid] gave an EC50 of 300 nM.
Same read-out and setting: the figure for `CC(C)Oc1ccc(F)c(-c2ccc(OC[C@H]3C[C@@H]3C(=O)O)c(F)c2)c1` (single isomer, unassigned) [Example 64] is 290 nM; for `CC(C)Oc1ccc(F)c(-c2ccc(C[C@@H]3C[C@H]3CC(=O)O)cc2)c1` (single isomer, unassigned) [Example 35, Trans-(2-((2′-fluoro-5′-isopropoxy-[1,1′-biphenyl]-4-yl)methyl)cyclopropyl)acetic acid] it is 330 nM; for `CC(C)Oc1cc(Cl)cc(-c2ccc(OC[C@@H]3C[C@H]3C(=O)O)cc2)c1` (racemic) [Example 120, Trans-2-(((3′-chloro-5′-isopropoxy-[1,1′-biphenyl]-4-yl)oxy)methyl) cyclopropanecarboxylic acid] it is 620 nM.
Consider `O=C(O)[C@@H]1C[C@H]1COc1ccc(-c2cc(Oc3cccc(F)c3)cnc2Cl)cc1` (racemic) [Example 111, Trans-2-((4-(2-chloro-5-(3-fluorophenoxy)pyridin-3-yl)phenoxy)methyl) cyclopropanecarboxylic acid], for which a half-maximal response (EC50) required 190 nM.
The same measure, in the same setting: the figure for `O=C(O)[C@H]1CC1COc1ccc(-c2cc(Oc3cccc(F)c3)cnc2Cl)cc1` (stereo partly drawn) [Example 113] is 120 nM; for `O=C(O)[C@@H]1C[C@H]1COc1ccc(-c2cc(Oc3ccc(Cl)cc3)ccc2F)cc1` (racemic) [Example 92, Trans-2-(((5′-(4-Chlorophenoxy)-2′-fluoro-[1,1′-biphenyl]-4-yl)oxy)methyl) cyclopropanecarboxylic acid] it is 300 nM; for `CC(C)Oc1cc(F)c(F)c(-c2ccc(OC[C@@H]3C[C@H]3C(=O)O)cc2F)c1` (racemic) [Example 61, Trans-2-(((2,2′,3′-trifluoro-5′-isopropoxy-[1,1′-biphenyl]-4-yl)oxy)methyl)cyclopropanecarboxylic acid] it is 2780 nM.
In turn, `Cc1nn(Cc2ccccc2)cc1-c1ccc(OC[C@@H]2C[C@H]2C(=O)O)cc1` (racemic) [Example 84, Trans-2-((4-(1-benzyl-3-methyl-1H-pyrazol-4-yl)phenoxy)methyl) cyclopropanecarboxylic acid] registered a concentration for a half-maximal effect (EC50) of 4310 nM.
The same measure, in the same setting: the figure for `CC(C)Oc1ccc(F)c(-c2ccc(CC[C@]3(F)C[C@H]3C(=O)O)cc2)c1` (racemic) [Example 39, Cis-2-fluoro-2-(2-(2′-fluoro-5′-isopropoxy-[1,1′-biphenyl]-4-yl)ethyl) cyclopropanecarboxylic acid] is 2020 nM; for `O=C(O)[C@@H]1C[C@@H]1COc1ccc(-c2cc(Oc3ccccc3)ccc2F)cc1` (single isomer, unassigned) [Example 5] it is 2110 nM; for `O=C(O)[C@H]1C[C@@H]1COc1ccc(-c2cc(Oc3cccc(F)c3)cc(F)c2F)cc1F` (single isomer, unassigned) [Example 105] it is 140 nM.
The same measure, in the same setting: to `O=C(O)[C@@H]1C[C@H]1COc1ccc(-c2cc(OC3CCC3)ccc2F)cc1` (racemic) [Example 94, Trans-2-(((5′-cyclobutoxy-2′-fluoro-[1,1′-biphenyl]-4-yl)oxy)methyl) cyclopropanecarboxylic acid] belongs 140 nM; to `CC(C)Oc1cc(F)cc(-c2ccc(OC[C@@H]3C[C@H]3C(=O)O)cc2)c1` (racemic) [Example 55, Trans-2-(((3′-fluoro-5′-isopropoxy-[1,1′-biphenyl]-4-yl)oxy)methyl) cyclopropanecarboxylic acid], 1060 nM.
Still for that read-out and setting: the figure for `COc1cc(-c2cc(Oc3cccc(F)c3)ccc2F)ccc1OC[C@@H]1C[C@H]1C(=O)O` (relative stereo) [Example 99, Trans-2-(((2′-fluoro-5′-(3-fluorophenoxy)-3-methoxy-[1,1′-biphenyl]-4-yl)oxy)methyl) cyclopropanecarboxylic acid] is 1140 nM; for `CC(C)Oc1ccc(F)c(-c2ccc(CC[C@H]3C[C@]3(C)C(=O)O)cc2)c1` (racemic) [Example 41, Trans-2-(2-(2′-fluoro-5′-isopropoxy-[1,1′-biphenyl]-4-yl)ethyl)-1-methylcyclopropanecarboxylic acid] it is 860 nM.

A further test relates to C57BL/6 mice. Kind of test: Acute Oral Glucose Tolerance Test. The test is classed as in vivo. The note with it: dosed at 30 mg/kg orally 60 min before glucose challenge (2 g/kg), AUC t=0-120 min compared to vehicle. As for the experimental part: In Vivo GPR120 Assays 1) Acute Oral Glucose Tolerance Test
C57BL/6 mice were housed individually and fed a standard rodent chow diet. At approximately 11 weeks age, after a 5 h fast, these mice were orally treated with vehicle or test compounds 60 min before a glucose challenge (2 g/kg). Blood glucose levels were determined from tail bleeds taken at −60, 0, 15, 30, 60 and 120 min after the glucose challenge. […] This AUC for compound treatment is compared to vehicle treatment.
As for `O=C(O)[C@H]1C[C@@H]1COc1ccc(-c2cc(Oc3cccc(F)c3)cc(F)c2F)cc1F` (single isomer, unassigned) [Example 105], the “reduced glucose AUC” value turned out to be 55%.
